The results in this text go back to article PMC6859854 (2019).

The subject of the assay is 75 nadA (RNA, riboswitch) GGGUUUGGUUGCAACAUCCCCGUGGGUUGGGUGAUGGCUCCAAUCAGAGCCGGAACAGCGAAUCCACUGCAACCGUGA
The assay can be described thus: in-line probing. Particulars: 20 mM Mg2+, 100 mM K+; 50 mM Tris-HCl pH 8.3, 23 °C, 42–72 h; apparent.

Take `NC(=O)c1ccc[n+]([C@@H]2O[C@H](COP(=O)(O)OP(=O)(O)OC[C@H]3O[C@@H](n4cnc5c(N)ncnc54)[C@H](O)[C@@H]3O)[C@@H](O)[C@H]2O)c1`: the KD is recorded as ~ 90 μM.
